The values below come from US10676508B2, “DEPDC1-derived peptide and vaccine containing same” (OncoTherapy Science, Inc., priority 2015, dated 2020).

The subject of assay [1] is peptide-pulsed C1R-A01 cells. Kind of assay: In vitro CTL induction, IFN-gamma ELISPOT assay (HLA-A*0101). It counts as cell-based, human. To be noted: CTLs from HLA-A*0101-positive donors, DCs pulsed with 20 micro-g/ml peptide, day 21, versus unpulsed C1R-A01. From the text:
Monocyte-derived dendritic cells (DCs) were used as the antigen-presenting cell to induce a cytotoxic T lymphocyte (CTL) response against peptides presented on human leukocyte antigens (HLAs). As described in the other sections, DCs were generated in vitro (Nakahara S et al., Cancer Res 2003, 63(14): 4112-8). Specifically, peripheral-blood mononuclear cells isolated from healthy volunteers (HLA-A*0101-positive) with the Ficoll-Paque plus solution (Pharmacia) were separated by attaching to plastic tissue culture dishes (Becton Dickinson) and concentrated as a monocyte fraction. The monocyte-concentrated population was cultured in the presence of 1000 IU/ml granulocyte macrophage colony-stimulating factor (R&D System) and 1000 IU/ml interleukin (IL)-4 (R&D System) in an AIM-V medium (Invitrogen) containing 2% heat-inactivated autologous serum (AS). After seven days of culturing, the cytokine-induced DCs were pulsed with 20 micro-g/ml each of the synthesized peptides in an AIM-V medium at 37 degrees C. for three hours in the presence of 3 micro-g/ml beta 2-microglobulin. Next, these peptide-pulsed DCs were inactivated by X-ray irradiation (20 Gy), and mixed in a 1:20 ratio with autologous CD8^+ T cells obtained by positive selection using the CD8 Positive Isolation Kit (Dynal). These culture products were seeded in a 48-well plate (Corning). Each well was made to contain 1.5×10^4 peptide-pulsed DCs, 3×10^5 CD8^+ T cells and 10 ng/ml IL-7 (R&D System) in 0.5 ml of the AIM-V/2% AS medium. Three days later, these culture products were added with a final concentration of 20 IU/ml IL-2 (CHIRON). On day 7 and day 14, T cells were further stimulated with peptide-pulsed autologous DCs. The DCs were prepared every time by the same method as above. On day 21, after the third peptide stimulation, CTL activities were examined against the peptide-pulsed C1R-A01 cells (Tanaka H et al., Br J Cancer 2001, 84(1): 94-9; Umano Y et al., Br J Cancer 2001, 84(8): 1052-7; Uchida N et al., Clin Cancer Res 2004, 10(24): 8577-86; Suda T et al., Cancer Sci 2006, 97(5): 411-9; Watanabe T et al., Cancer Sci 2005, 96(8): 498-506).
To examine specific CTL activity, an IFN-gamma ELISPOT assay and an IFN-gamma ELISA were performed. Specifically, peptide-pulsed C1R-A01 cells (1×10^4 cells/well) were prepared as the stimulator cell. The induced CTLs, i.e., CTL lines and CTL clones, were used as the responder cell. The IFN-gamma ELISPOT assay and IFN-gamma ELISA were performed according to the manufacturer's manual.

Assay [2] deals with peptide-pulsed C1R-A11. The assay is described as follows: In vitro CTL induction, IFN-gamma ELISPOT assay (HLA-A*1101). It counts as cell-based, human. The note with it: CTLs from HLA-A*1101-positive donors, DCs pulsed with 20 micro-g/ml peptide, day 21, versus unpulsed C1R-A11. From the text: Monocyte-derived dendritic cells (DCs) were used as the antigen-presenting cell to induce a cytotoxic T lymphocyte (CTL) response against peptides presented on human leukocyte antigens (HLAs). As described in the other sections, DCs were generated in vitro (Nakahara S et al., Cancer Res 2003, 63(14): 4112-8). Specifically, peripheral-blood mononuclear cells isolated from healthy volunteers (HLA-A*1101-positive) with the Ficoll-Paque plus solution (Pharmacia) were separated by attaching to plastic tissue culture dishes (Becton Dickinson) and concentrated as a monocyte fraction. The monocyte-concentrated population was cultured in the presence of 1000 IU/ml granulocyte macrophage colony-stimulating factor (R&D System) and 1000 IU/ml interleukin (IL)-4 (R&D System) in an AIM-V medium (Invitrogen) containing 2% heat-inactivated autologous serum (AS). After seven days of culturing, the cytokine-induced DCs were pulsed with 20 micro-g/ml each of the synthesized peptides in an AIM-V medium at 37 degrees C. for three hours in the presence of 3 micro-g/ml beta 2-microglobulin.
Next, these peptide-pulsed DCs were inactivated by X-ray irradiation (20 Gy), and mixed in a 1:20 ratio with autologous CD8^+ T cells obtained by positive selection using the CD8 Positive Isolation Kit (Dynal). These culture products were seeded in a 48-well plate (Corning). […]

Turning to “LSENSLLPA (a peptide derived from DEPDC1) [SEQ ID NO: 84]”, the “peptide-specific CTL activity (IFN-gamma production, ELISPOT)” value (“peptide-specific CTL activity” below) in assay [1] is “potent IFN-gamma production”.
On the same count and under the same terms, then “NVDDNNQLF (a peptide derived from DEPDC1) [SEQ ID NO: 85]”, with “potent IFN-gamma production”; and “TAGEAVDWLY (a peptide derived from DEPDC1) [SEQ ID NO: 92]”, with “potent IFN-gamma production”.
Consider “VSDRSSGIH (a peptide derived from DEPDC1) [SEQ ID NO: 89]”, for which, in assay [1], the “peptide-specific CTL activity” value is recorded as “potent IFN-gamma production”.
The same measure, in the same setting: then “PTTESEAALF (a peptide derived from DEPDC1) [SEQ ID NO: 94]”, with “specific IFN-gamma production was not observed”.
Turning to “LPEPLLTFEY (a peptide derived from DEPDC1) [SEQ ID NO: 107]”, the “peptide-specific CTL activity” value in assay [1] is reported as “potent IFN-gamma production”.
In the case of “QEDVEEVWRY (a peptide derived from DEPDC1) [SEQ ID NO: 106]”, the “peptide-specific CTL activity” value in assay [1] is reported as “potent IFN-gamma production”.
For the sequence “LFAPLPTYSY (a peptide derived from DEPDC1) [SEQ ID NO: 96]”, in assay [1], the “peptide-specific CTL activity” value is reported as “potent IFN-gamma production”.
“SNDMNNPTY (a peptide derived from DEPDC1) [SEQ ID NO: 86]”: the “peptide-specific CTL activity” value in assay [1] is recorded as “potent IFN-gamma production”.
“HSEENIQKPF (a peptide derived from DEPDC1) [SEQ ID NO: 101]”: the “peptide-specific CTL activity” value in assay [1] is given as “potent IFN-gamma production”.
“QTAVEKHLDY (a peptide derived from DEPDC1) [SEQ ID NO: 90]”: the “peptide-specific CTL activity” value in assay [1] is “potent IFN-gamma production”.
For the sequence “STECLLLSLL (a peptide derived from DEPDC1) [SEQ ID NO: 104]”, the “peptide-specific CTL activity” value in assay [1] was “potent IFN-gamma production”.
Regarding “LTFEYYELF (a peptide derived from DEPDC1) [SEQ ID NO: 88]”, the “peptide-specific CTL activity” value in assay [1] is listed as “potent IFN-gamma production”.
As for “HQEILQVPSY (a peptide derived from DEPDC1) [SEQ ID NO: 103]”, in assay [1], the “peptide-specific CTL activity” value was “potent IFN-gamma production”.
In the case of “TTESEAALF (a peptide derived from DEPDC1) [SEQ ID NO: 83]”, the “peptide-specific CTL activity” value in assay [1] is listed as “potent IFN-gamma production”.
Regarding “ESQGVPPGPY (a peptide derived from DEPDC1) [SEQ ID NO: 91]”, the “peptide-specific CTL activity” value in assay [1] is on record as “potent IFN-gamma production”.
Still for that read-out and setting: next, “AGEAVDWLY (a peptide derived from DEPDC1) [SEQ ID NO: 82]”: “potent IFN-gamma production”; “RSSTRRNSY (a peptide derived from DEPDC1) [SEQ ID NO: 21]”: “potent IFN-gamma production”.
Turning to “ATINKRLCK (a peptide derived from DEPDC1) [SEQ ID NO: 2]”, the “peptide-specific CTL activity” value in assay [2] is given as “specific IFN-gamma production was not observed”.
For the sequence “RSNDMNNPTY (a peptide derived from DEPDC1) [SEQ ID NO: 58]”, the “peptide-specific CTL activity” value in assay [1] is “potent IFN-gamma production”.
“KSDDLPHWV (a peptide derived from DEPDC1) [SEQ ID NO: 81]”: in assay [1], the “peptide-specific CTL activity” value is “potent IFN-gamma production”.
Regarding “FQKEYPLIY (a peptide derived from DEPDC1) [SEQ ID NO: 87]”, the “peptide-specific CTL activity” value in assay [1] is “potent IFN-gamma production”.
For “FLESKPKQEF (a peptide derived from DEPDC1) [SEQ ID NO: 102]”, the “peptide-specific CTL activity” value in assay [1] is on record as “potent IFN-gamma production”.
Consider “EVWRYVILIY (a peptide derived from DEPDC1) [SEQ ID NO: 99]”, for which the “peptide-specific CTL activity” value in assay [1] is “potent IFN-gamma production”.
